Strand notation (5' to 3'): a small letter for the sugar, then the base; units joined by * are phosphorothioate-linked, units joined directly phosphodiester-linked; [ ] holds rarer units or linkages, { } end groups; capitals alone tell only the bases. e = 2'-O-(2-methoxyethyl) (MOE); k = constrained ethyl (cEt); [5mC] = 5-methylcytosine; d = 2'-deoxy (DNA); m = 2'-O-methyl
system: Yap1 mRNA; assay: Antisense inhibition of human Yap1 in SNU-449 cells by modified oligonucleotides, single dose (Example 5, RTS36584); format: cell-based; details: Table 39; SNU-449 cells, 10,000 cells per well, free uptake, 2,000 nM oligonucleotide, approx. 48 hours; RTS36584; normalized to RIBOGREEN; Yap1 mRNA relative to untreated control
Summary of the method: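 Values are % of untreated control: Yap1 mRNA by quantitative RT-PCR (RTS36584), normalized to RIBOGREEN total RNA. Oligonucleotides were dosed at 2,000 nM, free uptake, in SNU-449 cells, with roughly 48 h exposure before RNA isolation.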

Substance | YAP1 (% UTC)
1198435 (kA*dT*dG*dT*dA*dA*dT*dA*dT*dT*dG*k[5mC]*eA*kA*eT*k[5mC]; antisense) [Compound 1198435] | 57
1198407 (kT*dG*d[5mC]*dT*dT*dT*dG*dG*dA*dA*dG*kA*eT*k[5mC]*eT*kG; antisense) [Compound 1198407] | 23
1095379 (antisense kA*d[5mC]*dT*dG*dA*dG*dG*dT*dA*dT*dA*kA*e[5mC]*kT*eG*kG) [Compound 1095379] | 52
1198454 (kA*dG*dA*d[5mC]*dT*dA*dA*dG*dT*dA*dA*kG*eG*kT*eT*kT; antisense) [Compound 1198454] | 39
1198406 (kG*d[5mC]*dT*dT*dT*dG*dG*dA*dA*dG*dA*kT*e[5mC]*kT*eG*kA; antisense) [Compound 1198406] | 17
1198379 (kA*dG*dT*dA*dT*dG*dT*dG*dG*d[5mC]*dA*kA*eT*kA*eA*kT) [Compound 1198379] | 45
1198420 (kA*dT*dA*dT*dG*dG*dT*dT*dT*dT*dG*kT*eG*kT*eG*kT; antisense) [Compound 1198420] | 41

same assay, conditions: Table 40 (separate experiment); SNU-449 cells, 10,000 cells per well, free uptake, 2,000 nM oligonucleotide, approx. 48 hours; RTS36584; normalized to RIBOGREEN; Yap1 mRNA relative to untreated control

Substance | YAP1 (% UTC)
1198748 (kA*eA*kG*d[5mC]*dA*d[5mC]*dT*dT*dT*dT*dA*d[5mC]*eA*eT*kT*kA; antisense) [Compound 1198748] | 81
1198714 (kT*eG*kT*d[5mC]*dT*d[5mC]*dA*dT*dG*d[5mC]*d[5mC]*dT*eT*eA*kT*kA; antisense) [Compound 1198714] | 20

same assay, conditions: Table 41; SNU-449 cells, 10,000 cells per well, free uptake, 2,000 nM modified oligonucleotide, approximately 48 hours; RTS36584; normalized to RIBOGREEN; Yap1 mRNA relative to untreated control cells

Substance | YAP1 (% UTC)
1198789 (antisense kA*eA*kA*dG*dT*dG*dT*dA*dT*dG*dT*d[5mC]*eA*eG*kA*kA) [Compound 1198789] | 22
1198791 (antisense kT*eT*kA*dA*dA*dG*dT*dG*dT*dA*dT*dG*eT*e[5mC]*kA*kG) [Compound 1198791] | 39
1198642 (kT*kA*dT*dT*dA*dG*dA*dG*dT*dA*dT*dG*kT*eG*kG*e[5mC]; antisense) [Compound 1198642] | 19
1198689 (antisense kA*kA*dT*dA*dT*dT*dG*d[5mC]*dA*dA*dT*d[5mC]*kT*eG*kT*e[5mC]) [Compound 1198689] | 91
1198676 (antisense kT*k[5mC]*dA*dG*dA*dT*dT*dT*dA*dG*dG*dA*kT*eG*k[5mC]*eA) [Compound 1198676] | 52
1198668 (antisense kA*kT*dA*dG*dT*dG*d[5mC]*dT*dT*dT*dG*dG*kA*eA*kG*eA) [Compound 1198668] | 72

same assay, conditions: Table 42 (separate experiment); SNU-449 cells, 10,000 cells per well, free uptake, 2,000 nM modified oligonucleotide, approximately 48 hours; RTS36584; normalized to RIBOGREEN; Yap1 mRNA relative to untreated control cells

Substance | YAP1 (% UTC)
1198711 (kG*kA*d[5mC]*dT*dA*dA*dG*dT*dA*dA*dG*dG*kT*eT*kT*e[5mC]; antisense) [Compound 1198711] | 60
1198240 (kT*kT*dA*dG*dG*dA*dT*dG*d[5mC]*dA*dT*eG*eG*eT*kT*kT) [Compound 1198240] | 43
1198236 (kG*kT*dG*d[5mC]*dT*dT*dT*dG*dG*dA*dA*eG*eA*eT*k[5mC]*kT) [Compound 1198236] | 24

same assay, conditions: Table 43 experiment; SNU-449 cells, 10,000 cells per well, free uptake, 2,000 nM, approximately 48 hours; RTS36584; Yap1 mRNA normalized to RIBOGREEN, relative to untreated control cells

Substance | YAP1 (% UTC)
1198460 (antisense kG*kA*dA*dA*dT*dT*dG*dT*d[5mC]*dT*d[5mC]*eA*kT*eG*k[5mC]*e[5mC]) [Compound 1198460] | 17
1198484 (antisense kG*k[5mC]*dA*d[5mC]*dT*dT*dT*dT*dA*d[5mC]*dA*eT*kT*eA*kG*eG) [Compound 1198484] | 18
1198272 (kT*kT*dT*dA*dA*dA*dG*dT*dG*dT*dA*eT*eG*eT*k[5mC]*kA; antisense) [Compound 1198272] | 37

same assay, conditions: Table 44 experiment; SNU-449 cells, 10,000 cells per well, free uptake, 2,000 nM, approximately 48 hours; RTS36584; Yap1 mRNA normalized to RIBOGREEN, relative to untreated control cells

Substance | YAP1 (% UTC)
1198489 (antisense kT*kT*dG*dG*dA*dA*dG*dA*dT*d[5mC]*dT*eG*kA*eA*kA*e[5mC]) [Compound 1198489] | 50
1198537 (k[5mC]*kT*dA*dA*dG*dT*dA*dA*dG*dG*dT*eT*kT*e[5mC]*k[5mC]*e[5mC]; antisense) [Compound 1198537] | 24
1198899 (kA*kG*dT*dA*dT*dG*dT*dG*dG*d[5mC]*dA*kA*dT*kA*dA*kT) [Compound 1198899] | 75

same assay, conditions: Table 45; Yap1 mRNA as percent of untreated control, SNU-449 cells, single dose

Substance | YAP1 (% UTC)
1198932 (kT*kT*dA*dG*dG*dA*dT*dG*d[5mC]*dA*dT*kG*dG*kT*dT*kT; antisense) [Compound 1198932] | 35
1198941 (kT*kT*dA*dT*dA*dT*dG*dG*dT*dT*dT*kT*dG*kT*dG*kT; antisense) [Compound 1198941] | 35
1198945 (kA*k[5mC]*dT*d[5mC]*dT*dT*dA*dT*dA*dT*dG*kG*dT*kT*dT*kT; antisense) [Compound 1198945] | 48
1198934 (kA*kT*dT*dT*dA*dG*dG*dA*dT*dG*d[5mC]*kA*dT*kG*dG*kT; antisense) [Compound 1198934] | 56
1198927 (kT*kG*d[5mC]*dT*dT*dT*dG*dG*dA*dA*dG*kA*dT*k[5mC]*dT*kG; antisense) [Compound 1198927] | 50
1198898 (kA*kT*dA*dT*dG*dG*dA*dA*dA*dT*dT*kG*dT*k[5mC]*dT*k[5mC]; antisense) [Compound 1198898] | 53
1198935 (kG*kA*dT*dT*dT*dA*dG*dG*dA*dT*dG*k[5mC]*dA*kT*dG*kG; antisense) [Compound 1198935] | 18

same assay, conditions: Table 46; Yap1 mRNA as percent of untreated control, SNU-449 cells, single dose

Substance | YAP1 (% UT)
1198885 (k[5mC]*kT*dA*dA*dG*dT*dA*dA*dG*dG*dT*kT*eT*k[5mC]*e[5mC]*k[5mC]; antisense) [Compound 1198885] | 41
1198882 (kA*kG*dT*dA*dA*dG*dG*dT*dT*dT*d[5mC]*k[5mC]*e[5mC]*kA*eG*kA; antisense) [Compound 1198882] | 56
1198826 (kA*kA*d[5mC]*dA*d[5mC]*dT*dG*dA*dG*dG*dT*kA*eT*kA*eA*k[5mC]; antisense) [Compound 1198826] | 64

same assay, conditions: Table 48; Yap1 mRNA level relative to untreated control; modified oligonucleotides targeting SEQ ID NO.: 1 and 2

Substance | YAP1 (% UT)
1076439 (k[5mC]*kT*kT*dA*dT*dA*dT*dG*dG*dT*dT*dT*dT*kG*kT*kG) [Compound 1076439] | 31

same assay, conditions: Table 49; Yap1 mRNA level relative to untreated control; modified oligonucleotides targeting SEQ ID NO.: 1 and 2

Substance | YAP1 (% UT)
1198356 (kT*kA*kA*dA*dG*dT*dG*dT*dA*dT*dG*dT*k[5mC]*eA*kG*eA; antisense) [Compound 1198356] | 5
1198545 (antisense kA*kA*kA*dT*dT*dG*dT*d[5mC]*dT*d[5mC]*dA*dT*kG*k[5mC]*k[5mC]*eT) [Compound 1198545] | 32

same assay, conditions: Table 50; Yap1 mRNA remaining as percent of untreated control (UT), SNU-449 cells, single dose

Substance | YAP1 (% UT)
1197283 (kG*kA*kA*dA*mU*dT*dG*dT*d[5mC]*dT*d[5mC]*dA*dT*kG*k[5mC]*k[5mC]; antisense) [Compound 1197283] | 29
1197236 (antisense kT*kA*kT*dT*mA*dG*dA*dG*dT*dA*dT*dG*dT*kG*kG*k[5mC]) [Compound 1197236] | 17

same assay, conditions: Table 51; Yap1 mRNA remaining as percent of untreated control (UT), SNU-449 cells, single dose

Substance | YAP1 (% UT)
1197279 (kT*kT*kA*dG*mA*d[5mC]*dT*dA*dA*dG*dT*dA*dA*kG*kG*kT) [Compound 1197279] | 54
1197298 (kA*kT*kA*dG*mU*dG*d[5mC]*dT*dT*dT*dG*dG*dA*kA*kG*kA) [Compound 1197298] | 46
1200794 (kA*kG*kA*dG*dT*mA*dT*dG*dT*dG*dG*d[5mC]*dA*kA*kT*kA; antisense) [Compound 1200794] | 18
1197303 (k[5mC]*kT*kT*dA*mU*dA*dT*dG*dG*dT*dT*dT*dT*kG*kT*kG; antisense) [Compound 1197303] | 72
1197262 (A_{ks}A_{ks}^{m}C_{ks}T_{ds}C_{ys}T_{ds}T_{ds}A_{ds}T_{ds}A_{ds}T_{ds}G_{ds}G_{ds}T_{ks}T_{ks}T_{k}; as printed in the source, key not given here) [Compound 1197262] | 89
1197276 (k[5mC]*kT*kA*dA*mG*dT*dA*dA*dG*dG*dT*dT*dT*k[5mC]*k[5mC]*k[5mC]; antisense) [Compound 1197276] | 44

same assay, conditions: Table 52; Yap1 mRNA, modified oligonucleotides targeting SEQ ID NO: 1 and 2

Substance | YAP1 (% UT)
1200866 (kA*kG*kT*dA*dA*mG*dG*dT*dT*dT*d[5mC]*d[5mC]*d[5mC]*kA*kG*kA; antisense) [Compound 1200866] | 41

same assay, conditions: Yap1 mRNA, percent of untreated control; modified oligonucleotides targeting SEQ ID NO: 1 and 2; Table 47

Substance | YAP1 (% UT)
1197195 (antisense kT*kT*kT*dA*dG*dG*dA*dT*dG*d[5mC]*dA*dT*dG*kG*kT*kT) [Compound 1197195] | 38
1076187 (kG*kA*kT*dT*dT*dA*dG*dG*dA*dT*dG*d[5mC]*dA*kT*kG*kG; antisense) [Compound 1076187] | 17

Source: patent US11214803B2, “Modulators of YAP1 expression” (Ionis Pharmaceuticals, Inc., priority 2019, dated 2022)
